The numbers were not newly measured in patent US10676418B2, “Method for producing microparticles from pressurized and heated starting material solution” (M. TECHNIQUE CO., LTD., priority 2016, dated 2020), which cites them from elsewhere.

The conditions of the data set: 25° C.; normal temperature and pressure.

On to `COc1cc(/C=C/C(=O)CC(=O)/C=C/c2ccc(O)c(OC)c2)ccc1O` [curcumin], for which the solubility in ethanol entry is recorded as “about 0.5 % by weight”.
